Laboratory results taken from patent US9662339B2, “Benzodioxane inhibitors of leukotriene production for combination therapy” (Boehringer Ingelheim International GmbH, priority 2012, dated 2017).

Experiments:
[1] = tested on: synthesis of LTB4 in human whole blood; experiment: LTB4 production inhibition assay in human whole blood (HWB); type: cell-based; settings: heparinized human whole blood, calcimycin 20 μM, 37° C.
Procedure: The compounds of the invention are additionally tested in a human whole blood (HWB) assay to determine their ability to inhibit the synthesis of LTB4 in a cellular system. Compounds are combined with heparinized human whole blood and incubated for 15 minutes at 37° C. Calcimycin (20 μM final, prepared in phosphate-buffered saline, pH 7.4) is then added and the mixture is incubated for another 30 minutes at 37° C. The samples are centrifuged for 5 min at low speed (1500×g) and the plasma layer is removed. Plasma LTB4 concentrations are then measured using an antibody-based homogenous time-resolved fluorescence method (CisBio, Bedford, Mass.). In general, the preferred potency range (IC50) of compounds in the HWB assay is between 10 nM to 10 μM, the more preferred potency range is 10 nM to 1 μM, and the most preferred potency range is 10 nM to 100 nM.

human LTA4 hydrolase = human LTA4 hydrolase (Homo sapiens (Human), UniProt P09960); experiment: LTA4H Enzyme assay (cleavage of Arg-AMC, fluorescence); type: biochemical; settings: LTA4H Enzyme 1 nM, Arg-AMC substrate 50 μM, room temperature 1 h
Sequence of human LTA4 hydrolase (P09960 whole entry): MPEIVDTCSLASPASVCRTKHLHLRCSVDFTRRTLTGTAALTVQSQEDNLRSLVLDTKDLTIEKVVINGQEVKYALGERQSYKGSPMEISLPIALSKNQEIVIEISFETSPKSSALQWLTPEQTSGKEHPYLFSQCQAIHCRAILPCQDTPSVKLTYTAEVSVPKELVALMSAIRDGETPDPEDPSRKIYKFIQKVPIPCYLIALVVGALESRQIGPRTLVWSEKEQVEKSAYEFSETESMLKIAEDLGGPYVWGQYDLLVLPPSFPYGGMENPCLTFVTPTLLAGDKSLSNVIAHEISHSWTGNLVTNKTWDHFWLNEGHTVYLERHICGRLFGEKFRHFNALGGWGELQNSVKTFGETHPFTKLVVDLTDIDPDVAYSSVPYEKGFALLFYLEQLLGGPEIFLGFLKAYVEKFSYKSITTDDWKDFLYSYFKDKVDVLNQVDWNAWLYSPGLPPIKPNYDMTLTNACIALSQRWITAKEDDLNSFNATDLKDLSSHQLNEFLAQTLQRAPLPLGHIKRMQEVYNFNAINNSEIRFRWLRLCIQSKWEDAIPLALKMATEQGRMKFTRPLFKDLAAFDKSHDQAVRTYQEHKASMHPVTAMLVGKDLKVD
Procedure: The compounds of the invention are assessed for the ability to interact with human LTA4 hydrolase in an enzymatic assay that measures the ability of the enzyme to cleave the peptide bond of arginyl-aminomethylcoumarin (Arg-AMC). LTA4H Enzyme (1 nM final), Arg-AMC substrate (50 μM final), and compound are combined in a reaction buffer (50 mM Tris-HCl (pH 7.5), 100 mM KCl, 0.5% bovine serum albumin) at room temperature for 1 h. The formation of product is assessed by measuring the fluorescence of aminomethylcoumarin product (excitation wavelength 380 nm/emission wavelength 460 nm).

[2] = tested on: New Zealand white rabbit model of atherosclerosis; experiment: New Zealand white rabbit model of atherosclerosis, combination with simvastatin; type: in vivo
Procedure: In Vivo Studies Materials and Method: Rabbit Atherosclerosis Study Methods
The in-life portions of these studies were conducted at Covance Labs (Greenfield, Ind.). NZW rabbits were placed on a HF/HC diet manufactured by Research Diets Inc. (C30355) containing 0.25% cholesterol, 3% peanut oil, and 3% coconut oil for 3 weeks before randomization into treatment groups of 23 animals based on cholesterol levels and LTB4 production. Rabbits with cholesterol levels below 250 mg/dL at the start of treatment were removed from further analysis. The rabbits were fed 125 g of rabbit chow each day and both food consumption and body weights were measured throughout the study period. After 3 weeks the rabbits were either continued on this same diet for 10 weeks (control) or treated with Compound 200 in the same food formulation. Compound treated groups are group 1: compound 200 (3 mg/kg) and simvastatin (2.5 mg/kg); and group 2: compound 200 (15 mg/kg) and simvastatin (2.5 mg/kg). Another group of rabbits were treated with simvastatin alone at a dose of 2.5 mg/kg. During this time, plasma samples were taken for cholesterol, compound exposure, ALT and AST activity, and ex vivo LTB4 production at treatment week 0, 2, 4 and 10. Plasma samples for HDL and LDL levels were taken at week 2, 4 and 10. The animals were sacrificed after ten weeks of treatment, perfused with 10% formalin, and their descending aortas dissected out and placed in […] for transport to Boehringer Ingelheim Pharmaceuticals Inc. for processing. The aortas were pinned out onto the silicone surface inside a metal dish and stained with Sudan IV stain. Atherosclerosis development was determined by image analysis software after photographing the vessels. The percentage of the total vessel staining positive was determined
The mean value of each parameter was calculated for each different treatment group and compared to the control value. A one way ANOVA was used to compare treatment groups to the control group using a Dunnett's test for multiplicity of measures using Excell Stat software. As a pre-planned measurement the mean value of compound 200 treatment groups were individually compared to the simvastatin alone group by a Student's T test. Statistical significance was considered at the p<0.05 level.

[3] = tested on: apoE-/- mouse model of atherosclerosis; experiment: apoE-/- mouse model of atherosclerosis; type: in vivo
[4] = in combination with simvastatin, compared to the simvastatin treated group

SMILES | IC50 (human LTA4 hydrolase) | also measured
COCC(=O)NC1CCN(Cc2ccc([C@H]3COc4cccnc4O3)cc2)CC1 [Example 252, N-{1-[(S)-4-(2,3-Dihydro-[1,4]dioxino[2,3-b]pyridin-3-yl)-benzyl]-piperidin-4-yl}-2-methoxy-acetamide] | – | IC50 [1]: 42 nM
CC(C)(O)C1CCN(Cc2ccc(C3COc4ccccc4O3)cc2)CC1 (stereo not shown) [Example 28, 2-{1-[4-(2,3-dihydro-1,4-benzodioxin-2-yl)benzyl]piperidin-4-yl}propan-2-ol] | 3.4 nM | –
O=C1NCCC12CCN(Cc1ccc(C3COc4ccccc4O3)cc1)CC2 (stereo not shown) [Example 4, 8-[4-(2,3-dihydro-1,4-benzodioxin-2-yl)benzyl]-2,8-diazaspiro[4.5]decan-1-one] | 0.74 nM | –
O=C(O)C1CCN(Cc2ccc([C@H]3COc4ccccc4O3)cc2)CC1 [Example 200, (S)-1-[4-(2,3-dihydro-benzo[1,4]dioxin-2-yl)-benzyl]-piperidine-4-carboxylic acid] | – | reduction in plaque area within the descending aorta in addition to the reduction due to statin treatment ([2]; in combination with simvastatin 2.5 mg/kg vs simvastatin alone, 10 weeks chow dosing, p<0.05): 35%; plaque area in the descending aorta of rabbits (FIG. 1) ([2]; in combination with simvastatin compared to simvastatin treatment alone): further reduces plaque area; effect on body weight [2, 4]: no significant effects; effect on plasma cholesterol [2, 4]: no significant effects; effect on triglycerides [2, 4]: no significant effects; plaque area in the descending aorta [3]: reduce plaque area
c1ccc2c(c1)OCC(c1ccc(CNC3CCCC3)cc1)O2 (stereo not shown) [Example 41, N-[4-(2,3-dihydro-1,4-benzodioxin-2-yl)benzyl]cyclopentanamine] | 3.71 nM | –
c1ccc2c(c1)OCC(c1ccc(CN3CCCC3)cc1)O2 (racemic) [Example 1, 1-[4-(2,3-dihydro-1,4-benzodioxin-2-yl)benzyl]pyrrolidine] | 0.38 nM | –
CN(CCc1ccccn1)Cc1ccc(C2COc3ccccc3O2)cc1 (stereo not shown) [Example 42, N-[4-(2,3-dihydro-1,4-benzodioxin-2-yl)benzyl]-N-methyl-2-(pyridin-2-yl)ethanamine] | 0.69 nM | –
CC[C@@H](C)NCc1ccc(C2COc3ccccc3O2)cc1 (stereo partly drawn) [Example 24, (2R)-N-[4-(2,3-dihydro-1,4-benzodioxin-2-yl)benzyl]butan-2-amine] | 5.9 nM | –
FC1CCN(Cc2ccc(C3COc4ccccc4O3)cc2)CC1 (stereo not shown) [Example 5, 1-[4-(2,3-dihydro-1,4-benzodioxin-2-yl)benzyl]-4-fluoropiperidine] | 2.96 nM | –
CC(=O)N1CCCN(Cc2ccc(C3COc4ccccc4O3)cc2)CC1 (stereo not shown) [Example 31, 1-{4-[4-(2,3-dihydro-1,4-benzodioxin-2-yl)benzyl]-1,4-diazepan-1-yl}ethanone] | 1.54 nM | –

Continued, in another order:

IC50 (human LTA4 hydrolase) | SMILES | also measured
3.63 nM | Cn1cnc(CNCc2ccc(C3COc4ccccc4O3)cc2)c1 (racemic) [Example 55, 1-[4-(2,3-dihydro-1,4-benzodioxin-2-yl)phenyl]-N-[(1-methyl-1H-imidazol-4-yl)methyl]methanamine] | –
0.16 nM | CS(=O)(=O)NC1CCN(Cc2ccc(C3COc4ccccc4O3)cc2)CC1 (stereo not drawn) [Example 48, N-{l-[4-(2,3-dihydro-1,4-benzodioxin-2-yl)benzyl]piperidin-4-yl}methanesulfonamide] | –
2.28 nM | c1ccc2c(c1)OC[C@H](c1ccc(CN3CCOCC3)cc1)O2 [Example 198, 4-[(S)-4-(2,3-dihydro-benzo[1,4]dioxin-2-yl)-benzyl]-morpholine] | –
1.73 nM | COC1CCN(Cc2ccc(C3COc4ccccc4O3)cc2)C1 (stereo not shown) [Example 47, 1-[4-(2,3-dihydro-1,4-benzodioxin-2-yl)benzyl]-3-methoxypyrrolidine] | –
